Consider two molecules from PubChem BioAssay AID1963965 (Molecular Pharmacology Branch, DTP, NCI, 2024).

The test system of the experiment is 996289-038-R-J1-PDC spheroid viability. Briefly: Anticancer human tumor 996289-038-R-J1-PDC patient-derived colon adenocarcinoma cell line growth inhibition [PI3K]. To be noted: spheroids with HUVEC and MSC; for viability, T/C: stronger effect = lower value. The essentials: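 Agents were dosed from a top concentration near clinical Cmax (otherwise 10 microM) in half-log decrements, alone or combined with PI3K inhibitors. The spheroids contain tumor cells plus endothelial (HUVEC) and MSC stroma; viability is measured.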
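Also: spheroids exposed to compounds for seven days before viability read.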
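For viability, T/C in this document: luminescence used as a proxy for viable cell amount; percent viability relative to DMSO vehicle control as 100%.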

`CC1(C)CCC(CN2CCN(c3ccc(C(=O)NS(=O)(=O)c4ccc(NCC5CCOCC5)c([N+](=O)[O-])c4)c(Oc4cnc5[nH]ccc5c4)c3)CC2)=C(c2ccc(Cl)cc2)C1` + COc1c(OCCCN2CCOCC2)ccc2c3n(c(=NC(=O)c4cnc(N)nc4)nc12)CCN3: the IC50 was 7.54 µM (curve of first compound, second compound 0.00316 µM); 7.76 µM (curve of first compound, second compound 0.01 µM); 5.77 µM (curve of first compound, second compound 0.0316 µM); 4.2 µM (curve of first compound, second compound 0.1 µM); less than 0.0316 µM (curve of first compound, second compound 0.316 µM); less than 0.0316 µM (curve of first compound, second compound 1 µM). Also, the viability, T/C (second compound 0.00316 µM, first compound 0.0316 µM) is 88.5%; the viability, T/C (second compound 0.00316 µM, first compound 0.1 µM) was 97.1%; the viability, T/C (second compound 0.00316 µM, first compound 0.316 µM) is 94.2%; the viability, T/C (second compound 0.00316 µM, first compound 1 µM) was 110%; the viability, T/C (second compound 0.00316 µM, first compound 3.16 µM) was 106%; the viability, T/C (second compound 0.00316 µM, first compound 10 µM) is 34%. The viability, T/C was 95.6% (second compound 0.01 µM, first compound 0.0316 µM); 88.6% (second compound 0.01 µM, first compound 0.1 µM); 84.2% (second compound 0.01 µM, first compound 0.316 µM); 97.7% (second compound 0.01 µM, first compound 1 µM); 103% (second compound 0.01 µM, first compound 3.16 µM); 37.6% (second compound 0.01 µM, first compound 10 µM). For the same molecule, the viability, T/C is 81.3% (second compound 0.0316 µM, first compound 0.0316 µM); 84.2% (second compound 0.0316 µM, first compound 0.1 µM); 72.9% (second compound 0.0316 µM, first compound 0.316 µM); 86.1% (second compound 0.0316 µM, first compound 1 µM); 90.5% (second compound 0.0316 µM, first compound 3.16 µM); 19.7% (second compound 0.0316 µM, first compound 10 µM). Also, the viability, T/C is, setting by setting: (second compound 0.1 µM, first compound 0.0316 µM) 65%; (second compound 0.1 µM, first compound 0.1 µM) 62.5%; (second compound 0.1 µM, first compound 0.316 µM) 62.8%; (second compound 0.1 µM, first compound 1 µM) 59.5%; (second compound 0.1 µM, first compound 3.16 µM) 65.2%; (second compound 0.1 µM, first compound 10 µM) 10.3%. Also, the viability, T/C is 40.4% (second compound 0.316 µM, first compound 0.0316 µM); 36.2% (second compound 0.316 µM, first compound 0.1 µM); 33.9% (second compound 0.316 µM, first compound 0.316 µM); 36.9% (second compound 0.316 µM, first compound 1 µM); 38.6% (second compound 0.316 µM, first compound 3.16 µM); 11.3% (second compound 0.316 µM, first compound 10 µM). In addition, the viability, T/C is 19.5% (second compound 1 µM, first compound 0.0316 µM); 19.5% (second compound 1 µM, first compound 0.1 µM); 21.1% (second compound 1 µM, first compound 0.316 µM); 23.3% (second compound 1 µM, first compound 1 µM); 18.8% (second compound 1 µM, first compound 3.16 µM); 6.87% (second compound 1 µM, first compound 10 µM).

Regarding `CC(Nc1ccc2c(c1)OCCn1cc(N3C(=O)OCC3C(F)F)nc1-2)C(N)=O` (stereo not drawn), the viability, T/C (compound 0.00316 µM) was 105% [middle of 8 runs]; the viability, T/C (compound 0.0316 µM) is 95.4% [middle of 8 runs]; the viability, T/C (compound 0.1 µM) was 90.3% [middle of 8 runs]; the viability, T/C (compound 0.316 µM) is 80% [middle of 8 runs]; the viability, T/C (compound 1 µM) is 67.5% [middle of 8 runs]. The IC50 (compound alone, run of 06/12/2023) was more than 1 µM.

For orientation: IC50 means the concentration that inhibits the measured activity by half. One may read the viability, T/C as the ratio of treated to control.
